In paper PMC5601486, “Identification of 4-phenylquinolin-2(1H)-one as a specific allosteric inhibitor of Akt” (Scientific Reports, 2017):

How the values were obtained:
PIK3C2G = assay: KINOMEscan; conditions: 50000 nM
Experimental: KINOMEscan™ selectivity screen
(§1) The assay was perfor med at DiscoveRx Corporation according the methods published previously5. Briefly, Kinase-tagged T7 phage strains were grown in parallel in an E. coli host derived from the BL21 strain. E. coli were grown to log-phase and infected with T7 phage from a frozen stock and incubated with shaking at 32°C until lysis (90-150 minutes). The kinases were produced in HEK-293 cells and subsequently tagged with DNA for qPCR detection. Streptavidin-coated magnetic beads were treated with biotinylated small molecule ligands to generate affinity resins for kinase
(§2) inhibitor or DMSO control was performed in polypropylene 384-well plates for 1 hr at room temperature. After wash with PBS buffer containing 0.05% Tween 20, the beads were incubated in elution buffer (PBS containing 0.05 % Tween 20 and 0.5 μM non-biotinylated affinity ligand) for 30 minutes at room temperature. The kinase concentration in the eluates was measured by qPCR.

CSNK1A1L = assay: KINOMEscan; conditions: 50000 nM
Experimental: KINOMEscan™ selectivity screen
as §1, §2

LRRK2 = assay: KINOMEscan; conditions: 50000 nM
Experimental: KINOMEscan™ selectivity screen
as §1, §2

YANK1 = assay: KINOMEscan; conditions: 50000 nM
Experimental: KINOMEscan™ selectivity screen
(§3) Briefly, Kinase-tagged T7 phage strains were grown in parallel in an E. coli host derived from the BL21 strain. E. coli were grown to log-phase and infected with T7 phage from a frozen stock and incubated with shaking at 32°C until lysis (90-150 minutes). The kinases were produced in HEK-293 cells and subsequently tagged with DNA for qPCR detection. Streptavidin-coated magnetic beads were treated with biotinylated small molecule ligands to generate affinity resins for kinase
as §2

NIM1 = assay: KINOMEscan; conditions: 50000 nM
Experimental: KINOMEscan™ selectivity screen
as §3, §2

ERN1 = assay: KINOMEscan; conditions: 50000 nM
Experimental: KINOMEscan™ selectivity screen
as §3, §2

CDKL3 = assay: KINOMEscan; conditions: 50000 nM
Experimental: KINOMEscan™ selectivity screen
as §3, §2

MLCK = assay: KINOMEscan; conditions: 50000 nM
Experimental: KINOMEscan™ selectivity screen
as §1, §2

CDC2L5 = tested on: T1, CDC2L5; assay: KINOMEscan; format: binding, human; conditions: 50000 nM
T1 construct: purchased DiscoveRx KINOMEscan

DYRK2 = assay: KINOMEscan; conditions: 50000 nM
Experimental: KINOMEscan™ selectivity screen
as §1, §2

PRKD1 = assay: KINOMEscan; conditions: 50000 nM
Experimental: KINOMEscan™ selectivity screen
as §1, §2

over 380 human kinases = assay: KINOMEscan selectivity screen (whole panel); conditions: 50000 nM; 403 non-mutant kinases
Experimental: KINOMEscan™ selectivity screen
as §1, §2

FLT3(D835H) = assay: KINOMEscan; conditions: 50000 nM
Experimental: KINOMEscan™ selectivity screen
as §1, §2

TEC = assay: KINOMEscan; conditions: 50000 nM
Experimental: KINOMEscan™ selectivity screen
as §3, §2

[1] = tested on: EGFR(L747-S752del, P753S); assay: KINOMEscan; conditions: 50000 nM
Experimental: as §3, §2

PRKCD = assay: KINOMEscan; conditions: 50000 nM
Experimental: KINOMEscan™ selectivity screen
as §1, §2

CSNK1A1 = assay: KINOMEscan; conditions: 50000 nM
Experimental: KINOMEscan™ selectivity screen
as §1, §2

CHEK2 = assay: KINOMEscan; conditions: 50000 nM
Experimental: KINOMEscan™ selectivity screen
as §3, §2

NEK2 = assay: KINOMEscan; conditions: 50000 nM
Experimental: KINOMEscan™ selectivity screen
as §1, §2

[2] = tested on: ABL1(T315I)-phosphorylated; assay: KINOMEscan; conditions: 50000 nM
Experimental: KINOMEscan™ selectivity screen
as §1, §2

Akt = tested on: T2, Akt; assay: In vitro phosphorylation of Akt T308 by PDK1; format: biochemical; conditions: inactive Akt, PE/PC/PS/PIP3 vesicles
T2 construct: purchased Millipore 14-279

FLT3(ITD) = assay: KINOMEscan; conditions: 50000 nM
Experimental: KINOMEscan™ selectivity screen
(§4) The assay was perfor med at DiscoveRx Corporation according the methods published previously5. […] The kinases were produced in HEK-293 cells and subsequently tagged with DNA for qPCR detection. Streptavidin-coated magnetic beads were treated with biotinylated small molecule ligands to generate affinity resins for kinase
as §2

HASPIN = assay: KINOMEscan; conditions: 50000 nM
Experimental: KINOMEscan™ selectivity screen
as §1, §2

GRK2 = assay: KINOMEscan; conditions: 50000 nM
Experimental: KINOMEscan™ selectivity screen
as §3, §2

STK35 = assay: KINOMEscan; conditions: 50000 nM
Experimental: KINOMEscan™ selectivity screen
as §3, §2

EGFR(L747-T751del,Sins) = assay: KINOMEscan; conditions: 50000 nM
Experimental: KINOMEscan™ selectivity screen
as §3, §2

PRKCQ = assay: KINOMEscan; conditions: 50000 nM
Experimental: KINOMEscan™ selectivity screen
as §1, §2

PIP5K1C = assay: KINOMEscan; conditions: 50000 nM
Experimental: KINOMEscan™ selectivity screen
as §1, §2

ROS1 = assay: KINOMEscan; conditions: 50000 nM
Experimental: KINOMEscan™ selectivity screen
as §1, §2

TAOK1 = assay: KINOMEscan; conditions: 50000 nM
Experimental: KINOMEscan™ selectivity screen
as §1, §2

SNRK = assay: KINOMEscan; conditions: 50000 nM
Experimental: KINOMEscan™ selectivity screen
as §4, §2

IKK-beta = assay: KINOMEscan; conditions: 50000 nM
Experimental: KINOMEscan™ selectivity screen
as §1, §2

CAMK2G = assay: KINOMEscan; conditions: 50000 nM
Experimental: KINOMEscan™ selectivity screen
as §1, §2

SGK1 = assay: Western blot of SGK1 S422 phosphorylation; format: cell-based, Mouse; conditions: all concentrations tested including 80 µM
Experimental: Neuro 2A cells were seeded in 12-well plates in DMEM containing 5% FBS for 24 hr.
After overnight serum starvation (in 0% FBS DMEM), cells were incubated for 30 min at 37 °C with G7 or LY294002 or Torin 1 (Sigma Aldrich) at various concentrations, or DMSO control. IGF-1 was added to each well at a final concentration of 100 ng/mL. After 30-min incubation cells were washed with cold PBS and lysed with 50 µL lysis buffer containing 1% Triton X-100 and protease/phosphatase inhibitors (Cell Signaling Technology) or RIPA buffer (Santa Cruz Biotech). Samples were electrophoresed in 4–12% Bis-Tris gels (Life Technologies) at 150 V using MOPS SDS running buffer. Proteins were transferred electrophoretically to a PVDF or nitrocellulose membrane. For detection of cleaved […]
caspase 3 a Trans-Blot Turbo Transfer System (Bio-Rad, 25 V for 25 min) with PVDF membrane were used. […]
anti- GAPDH (14C10) antibody (#2118) (all antibodies were from Cell Signaling Technology unless indicated, 1:1000 dilution was used) at 4°C overnight, washed three times with TBS-T, then incubated with peroxidase-conjugated secondary antibody (Sigma-Aldrich) for 1 hr at room temperature. […] Band intensity was quantitated using Kodak 1D imaging analysis software. […]

PLK3 = assay: KINOMEscan; conditions: 50000 nM
Experimental: KINOMEscan™ selectivity screen
as §3, §2

PIK3CG = assay: KINOMEscan; conditions: 50000 nM
Experimental: KINOMEscan™ selectivity screen
as §3, §2

LCK = assay: KINOMEscan; conditions: 50000 nM
Experimental: KINOMEscan™ selectivity screen
as §1, §2

## Oc1cc(-c2ccccc2)c2ccccc2n1 [G7, 4-phenylquinolin-2(1H)-one]
PIK3C2G
  Percent Control: 97%
CSNK1A1L
  Percent Control: 81%
LRRK2
  Percent Control: 55%
YANK1
  Percent Control: 100%
NIM1
  Percent Control: 90%
ERN1
  Percent Control: 69%
CDKL3
  Percent Control: 89%
MLCK
  Percent Control: 78%
CDC2L5
  Percent Control: 87%
DYRK2
  Percent Control: 72%
PRKD1
  Percent Control: 96%
Over 380 human kinases
  Number of Hits S(1): 0
  Number of Hits S(10): 2
  Number of Hits S(35): 14
  Selectivity Score S(10): 0.005
  Selectivity Score S(35): 0.035
FLT3(D835H)
  Percent Control: 34%
TEC
  Percent Control: 71%
[1]
  Percent Control: 84%
PRKCD
  Percent Control: 100%
CSNK1A1
  Percent Control: 80%
CHEK2
  Percent Control: 100%
NEK2
  Percent Control: 77%
[2]
  Percent Control: 64%
Akt
  in vitro phosphorylation of T308 by PDK1: impaired
FLT3(ITD)
  Percent Control: 52%
HASPIN
  Percent Control: 57%
GRK2
  Percent Control: 91%
STK35
  Percent Control: 90%
EGFR(L747-T751del,Sins)
  Percent Control: 77%
PRKCQ
  Percent Control: 81%
PIP5K1C
  Percent Control: 44%
ROS1
  Percent Control: 98%
TAOK1
  Percent Control: 95%
SNRK
  Percent Control: 84%
IKK-beta
  Percent Control: 83%
CAMK2G
  Percent Control: 81%
SGK1
  S422 phosphorylation of SGK1: did not inhibit
PLK3
  Percent Control: 83%
PIK3CG
  Percent Control: 94%
LCK
  Percent Control: 80%
